Values of other authors in doi:10.1101/2024.08.20.608791v1 (bioRxiv, 2024).

Legend:
[1] = <LOQ
[2] = humans
[3] = oral bioavailability in animals, species not stated
[4] = for observed F: oral bioavailability, not marked as animal data, source not stated per compound
[5] = assay not specified

| solubility in water (in words) [1] | observed F in animals [3] | Molecule | observed F [4] | other results |
| --- | --- | --- | --- | --- |
|  |  | C[C@H]1O[C@@H](O[C@H]2[C@@H](O)C[C@H](O[C@H]3[C@@H](O)C[C@H](O[C@H]4CC[C@@]5(C)[C@H](CC[C@@H]6[C@@H]5C[C@@H](O)[C@]5(C)[C@@H](C7=CC(=O)OC7)CC[C@]65O)C4)O[C@@H]3C)O[C@@H]2C)C[C@H](O)[C@@H]1O [Digoxin] |  | Caco-2 permeability (in words) (Caco-2; Caco-2 experiments): moderate permeability; fa predicted using the Caco-2 assay (Caco-2; underprediction of human fa from Caco-2): ~50% |
| practically insoluble in water |  | CC1(C)CCC(CN2CCN(c3ccc(C(=O)NS(=O)(=O)c4ccc(NCC5CCOCC5)c([N+](=O)[O-])c4)c(Oc4cnc5[nH]ccc5c4)c3)CC2)=C(c2ccc(Cl)cc2)C1 [Venetoclax] |  | fraction absorbed (fa) of approved oral drugs [2]: > 65%; log P (as reported in Table 1 and text, source and method not stated): 8.2 |
|  | 11-33% | CC(C)c1nc(CN(C)C(=O)N[C@@H](CCN2CCOCC2)C(=O)N[C@H](CC[C@H](Cc2ccccc2)NC(=O)OCc2cncs2)Cc2ccccc2)cs1 [cobicistat] |  |  |
|  | 26-39% | C=C[C@@H]1C[C@]1(NC(=O)[C@@H]1C[C@@H](Oc2cc(-c3csc(NC(=O)C(C)C)n3)nc3c(Br)c(OC)ccc23)CN1C(=O)[C@@H](NC(=O)OC1CCCC1)C(C)(C)C)C(=O)O [faldaprevir] |  |  |
|  |  | CC1(C)CC[C@]2(NC(=O)C(C)(F)F)CC[C@]3(C)[C@H](C(=O)C=C4[C@@]5(C)C=C(C#N)C(=O)C(C)(C)[C@@H]5CC[C@]43C)[C@@H]2C1 [omaveloxolone] | 8% |  |
|  | 25% | CC(=O)O[C@H]1C(=O)[C@@]2(C)[C@H]([C@H](OC(=O)c3ccccc3)[C@]34OC(=O)O[C@H]3[C@H](OC(=O)[C@H](O)[C@H](CC(C)C)NC(=O)OC(C)(C)C)C(C)=C1C4(C)C)[C@]1(OC(C)=O)CO[C@@H]1C[C@@H]2O [ortataxel] |  | in vitro permeability (in words) [5]: moderate in vitro permeability |
| practically insoluble in water | 52% | CC[C@@H]([C@H](C)O)n1ncn(-c2ccc(N3CCN(c4ccc(OC[C@@H]5CO[C@@](Cn6cncn6)(c6ccc(F)cc6F)C5)cc4)CC3)cc2)c1=O [posaconazole] |  | in vitro permeability (in words) [5]: high in vitro permeability; calculated log P (calculated): 5.4; experimentally determined log P (experimental): 2.4 |
| practically insoluble in water | 49-123% | CC[C@@H]1C[C@]1(NC(=O)[C@@H]1C[C@@H](Oc2cc(-c3csc(NC(C)C)n3)nc3c(Cl)c(OCCN4CCOCC4)ccc23)CN1C(=O)[C@@H](NC(=O)O[C@@H]1C[C@@H]2C[C@@H]2C1)C(C)(C)C)C(=O)O [vedroprevir] |  | in vitro permeability (in words) [5]: low in vitro permeability |
| practically insoluble in water |  | COC[C@H]1C[C@@H](c2ncc(-c3ccc4c(c3)COc3cc5c(ccc6nc([C@@H]7CC[C@H](C)N7C(=O)[C@@H](NC(=O)OC)C(C)C)[nH]c65)cc3-4)[nH]2)N(C(=O)[C@H](NC(=O)OC)c2ccccc2)C1 [velpatasvir] |  | estimated / proposed fa ([2]; oral, compounds without fa values in man, estimate or proposal only): 25-30% |
| practically insoluble in water |  | anidulafungin |  | F ([4]; species not stated, quoted as comparison for micafungin): 2-7% |
|  |  | cholecystokinin octapeptide | 0.2% |  |
|  |  | desmopressin | 0.08-0.16% |  |
|  |  | semaglutide | 0.8% |  |
